Data published in ChEMBL document CHEMBL4392830, “Synthesis and biological evaluation of Doxorubicin-containing conjugate targeting PSMA” (Bioorg Med Chem Lett, 2019).
Active and inactive are the calls of the source. The rule behind the calls is not given here.

Experiments:
[1] = molecular target: T1, Glutamate carboxypeptidase 2 (Homo sapiens, UniProt Q04609); test: Binding affinity to PSMA in human LNCAP cells assessed as doxorubicin release in cytoplasm measured after 48 hrs; format: ADME, cell-based
[2] = molecular target: T1, Glutamate carboxypeptidase 2; test: Binding affinity to PSMA in human LNCAP cells assessed as doxorubicin release in nucleus measured after 40 milliseconds; format: ADME, cell-based
[3] = Drug uptake in nucleus of PSMA-negative human PC3 cells measured after 40 milliseconds; format: ADME, subcellular; details: pc-3
[4] = molecular target: T1, Glutamate carboxypeptidase 2; test: Binding affinity to PSMA in human LNCAP cells assessed as doxorubicin release in cytoplasm measured after 40 milliseconds; format: ADME, cell-based
[5] = Drug uptake in cytoplasm of PSMA-negative human PC3 cells measured after 40 milliseconds; format: ADME, subcellular; details: pc-3
LNCaP = test: Cytotoxicity against PSMA-positive human LNCAP cells by MTT assay; format: functional
PC-3 [6] = test: Cytotoxicity against PSMA-negative human PC3 cells by MTT assay; format: functional
LNCaP C4-2 = test: Cytotoxicity against PSMA-positive human C4-2 cells by cellTiter 96 aqueous cell proliferation assay; format: functional, cell-based
PC-3 [7] = test: Cytotoxicity against PSMA-negative human PC3 cells by cellTiter 96 aqueous cell proliferation assay; format: functional, cell-based
[8] = molecular target: T1, Glutamate carboxypeptidase 2; test: Binding affinity to PSMA in human LNCAP cells measured after 2 hrs by DAPI staining based fluorescence assay; format: ADME, cell-based
[9] = Drug uptake in PSMA-negative human PC3 cells measured after 2 hrs by DAPI staining based fluorescence assay; format: ADME, cell-based; details: pc-3, 2 h
[10] = Drug uptake in nucleus of PSMA-positive human LNCAP cells measured after 48 hrs; format: ADME, subcellular
[11] = Drug uptake in nucleus of PSMA-positive human LNCAP cells at 15 uM measured after 2 hrs by DAPI staining based fluorescence assay; format: ADME, subcellular
[12] = Drug uptake in nucleus of PSMA-negative human PC3 cells at 15 uM measured after 2 hrs by DAPI staining based fluorescence assay; format: ADME, subcellular; details: pc-3, 2 h
[13] = Ratio of drug level in nucleus to cytoplasm of PSMA-positive human LNCAP cells measured after 40 milliseconds; format: ADME
[14] = Ratio of drug level in nucleus to cytoplasm of PSMA-negative human PC3 cells measured after 40 milliseconds; format: ADME
[15] = Antitumor activity against PSMA-positive human PC3-PIP cells xenografted in nu/nu mouse assessed as tumor growth inhibition at 4 mg/kg, ip per week for 3 weeks relative to control; format: functional; details: 504 h, read-out: TGI

T1 sequence (Q04609 whole entry): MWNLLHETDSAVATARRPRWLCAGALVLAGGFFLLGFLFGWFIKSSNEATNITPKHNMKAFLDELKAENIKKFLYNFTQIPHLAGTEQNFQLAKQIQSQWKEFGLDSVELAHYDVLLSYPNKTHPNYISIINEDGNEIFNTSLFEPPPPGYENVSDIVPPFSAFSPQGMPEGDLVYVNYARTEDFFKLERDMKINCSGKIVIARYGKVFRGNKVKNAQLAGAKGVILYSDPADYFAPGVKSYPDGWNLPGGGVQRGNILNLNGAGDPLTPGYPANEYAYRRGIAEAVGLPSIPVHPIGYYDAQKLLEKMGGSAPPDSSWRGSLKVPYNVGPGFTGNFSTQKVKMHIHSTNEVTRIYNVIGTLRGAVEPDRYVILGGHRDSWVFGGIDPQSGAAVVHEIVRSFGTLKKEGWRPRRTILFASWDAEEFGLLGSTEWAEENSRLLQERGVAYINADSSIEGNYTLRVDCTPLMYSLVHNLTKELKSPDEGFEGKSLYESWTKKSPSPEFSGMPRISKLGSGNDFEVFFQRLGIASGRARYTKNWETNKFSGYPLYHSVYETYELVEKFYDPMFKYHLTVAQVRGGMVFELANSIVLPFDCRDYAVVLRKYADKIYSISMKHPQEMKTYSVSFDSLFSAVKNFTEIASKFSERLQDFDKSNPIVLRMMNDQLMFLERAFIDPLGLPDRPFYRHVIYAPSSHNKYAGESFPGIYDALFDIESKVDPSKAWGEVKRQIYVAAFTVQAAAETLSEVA

Activity [1]	Activity [2]	Drug uptake [3]	Activity [4]	Drug uptake [5]	Activity [8]	Drug uptake [9]	Drug uptake [10]	Drug uptake [11]	Drug uptake [12]	Ratio [13]	Ratio [14]	SMILES	CC50 (LNCaP)	CC50 (PC-3 [6])	Activity (LNCaP C4-2)	Activity (PC-3 [7])	IC50 (LNCaP C4-2)	IC50 (PC-3 [7])	inhibition in vivo at 4 mg/kg [15]
Active	Not Active	Not Active	Not Active	Not Active								COc1cccc2c1C(=O)c1c(O)c3c(c(O)c1C2=O)C[C@@](O)(C(=O)CO)C[C@@H]3O[C@H]1C[C@H](NC(=O)CCC(=O)NCCCCCCCCCCC(=O)NCCCC[C@H](NC(=O)N[C@@H](CCC(=O)O)C(=O)O)C(=O)O)[C@H](O)[C@H](C)O1	inactive	inactive	inactive	inactive			
					Active	Not Active						CN1\C(=C/C=C/C=C/C2=[N+](CCCCCC(=O)NCCCCCCCCCCC(=O)NCCCC[C@H](NC(=O)N[C@@H](CCC(=O)O)C(=O)O)C(=O)O)c3cc(S(=O)(=O)[O-])ccc3C2(C)C)C(C)(C)c2cc(S(=O)(=O)[O-])ccc21.[Na+]							
							Active	Active	Active	3.5	3.7	COc1cccc2c1C(=O)c1c(O)c3c(c(O)c1C2=O)C[C@@](O)(C(=O)CO)C[C@@H]3O[C@H]1C[C@H](N)[C@H](O)[C@H](C)O1 [DOXORUBICIN]	107 nM	< 500 nM			> 32 nM	> 32 nM	92%
